Data taken from US10457677B2 (priority 2015, dated 2019).
Where a name gives a salt, the structure may show the parent alone. Read-outs that look alike come from different tables or passages of the source.

Tests used:
PI3K (p120γ) (human) = PI3K (p120γ) (human) (Homo sapiens (Human), UniProt P48736); test: PI3K (p120γ) (human), non-radioactive assay (HTRF); type: biochemical; conditions: read-out: IC50 (PI3Kgamma)
Summary of the method: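 Enzyme was run with 10 μM phosphatidylinositol 4,5-bisphosphate, starting the reaction with MgATP at an unspecified level, for 30 min at room temperature. The stop used EDTA plus biotinylated PIP3, and detection used Eu-anti-GST, GST-GRP1 PH domain and streptavidin-APC. Signal was taken as HTRF = 10000×(Em665nm/Em620nm).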

PI3K p110δ/p85α (human) = PI3K p110δ/p85α (human) (Homo sapiens (Human), UniProt O00329); test: PI3K p110δ/p85α (human), non-radioactive assay (HTRF); type: biochemical; conditions: read-out: IC50 (PI3Kdelta)
mTOR (human) = mTOR (human) (Homo sapiens (Human), UniProt P42345); test: mTOR (human) kinase assay, [γ-33P-ATP] filter assay; type: biochemical
Summary of the method: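 Radiometric filter assay: enzyme in 50 mM HEPES pH 7.5, 1 mM EGTA, 0.01% Tween 20, 3 mM MnCl2, 2 mg/ml substrate with [γ-33P-ATP], started with MgATP. Incubated 40 min at room temperature, stopped with 3% phosphoric acid; incorporation measured on P30 filtermat by scintillation counting.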

PI3K p110α/p85α (human) = PI3K p110α/p85α (human) (Homo sapiens (Human), UniProt P42336); test: PI3K p110α/p85α (human), non-radioactive assay (HTRF); type: biochemical; conditions: read-out: IC50 (PI3Kalpha)
PI3K p110β/p85α (human) = PI3K p110β/p85α (human) (Homo sapiens (Human), UniProt P42338); test: PI3K p110β/p85α (human), non-radioactive assay (HTRF); type: biochemical; conditions: read-out: IC50 (PI3Kbeta)
Summary of the method: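 Human p110β/p85α incubated with 10 μM phosphatidylinositol 4,5-bisphosphate and MgATP for 30 min at room temperature, stopped with EDTA plus biotinylated PIP3. HTRF detection used a Eu-anti-GST antibody, GST-GRP1 PH domain and streptavidin-APC, with signal taken as 10000×(Em665nm/Em620nm).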

[1] = molecular target: purified human recombinant ATM (ataxia telangiectasia mutated), full length (Homo sapiens (Human), UniProt Q13315); test: ATM kinase assay - determination of ATM inhibition (IC50 ATM), TR-FRET; type: biochemical
Summary of the method: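 Full-length enzyme, expressed in a mammalian cell line, pre-incubated 15 min with inhibitor in 25 mM HEPES pH 8.0, 10 mM Mg(CH3COO)2, 1 mM MnCl2, 0,1% BSA, 0,01% Brij 35, 5 mM DTT. Full-length cmyc-p53 (Sf21-expressed) and ATP then added, 30-35 min at 22° C. EDTA stop; p53 S15 phosphorylation read by TR-FRET antibodies.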

[2] = tested on: phosphorylation of CHK2 (phospho-Thr68) in HCT116 cells; test: Cellular pCHK2 assay: bleomycin-induced phosphorylation of CHK2 (phospho-Thr68), immunofluorescence high-content analysis; type: cell-based, human; conditions: Homo sapiens, HCT-116, 4 h, read-out: IC50 (pCHK2)
Summary of the method: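 HCT116 cells in DMEM with 10% FCS, incubated overnight at 37° C, then given compounds (1 nM to 30 μM, 0.5% DMSO) together with 10 μM bleomycin. Phospho-Thr68 CHK2 immunostained and imaged by high-content imager; nuclei with pCHK2 above background counted, cell count from propidium iodide DNA stain.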

PI3K p110α/p85α (human), sequence (P42336 whole entry): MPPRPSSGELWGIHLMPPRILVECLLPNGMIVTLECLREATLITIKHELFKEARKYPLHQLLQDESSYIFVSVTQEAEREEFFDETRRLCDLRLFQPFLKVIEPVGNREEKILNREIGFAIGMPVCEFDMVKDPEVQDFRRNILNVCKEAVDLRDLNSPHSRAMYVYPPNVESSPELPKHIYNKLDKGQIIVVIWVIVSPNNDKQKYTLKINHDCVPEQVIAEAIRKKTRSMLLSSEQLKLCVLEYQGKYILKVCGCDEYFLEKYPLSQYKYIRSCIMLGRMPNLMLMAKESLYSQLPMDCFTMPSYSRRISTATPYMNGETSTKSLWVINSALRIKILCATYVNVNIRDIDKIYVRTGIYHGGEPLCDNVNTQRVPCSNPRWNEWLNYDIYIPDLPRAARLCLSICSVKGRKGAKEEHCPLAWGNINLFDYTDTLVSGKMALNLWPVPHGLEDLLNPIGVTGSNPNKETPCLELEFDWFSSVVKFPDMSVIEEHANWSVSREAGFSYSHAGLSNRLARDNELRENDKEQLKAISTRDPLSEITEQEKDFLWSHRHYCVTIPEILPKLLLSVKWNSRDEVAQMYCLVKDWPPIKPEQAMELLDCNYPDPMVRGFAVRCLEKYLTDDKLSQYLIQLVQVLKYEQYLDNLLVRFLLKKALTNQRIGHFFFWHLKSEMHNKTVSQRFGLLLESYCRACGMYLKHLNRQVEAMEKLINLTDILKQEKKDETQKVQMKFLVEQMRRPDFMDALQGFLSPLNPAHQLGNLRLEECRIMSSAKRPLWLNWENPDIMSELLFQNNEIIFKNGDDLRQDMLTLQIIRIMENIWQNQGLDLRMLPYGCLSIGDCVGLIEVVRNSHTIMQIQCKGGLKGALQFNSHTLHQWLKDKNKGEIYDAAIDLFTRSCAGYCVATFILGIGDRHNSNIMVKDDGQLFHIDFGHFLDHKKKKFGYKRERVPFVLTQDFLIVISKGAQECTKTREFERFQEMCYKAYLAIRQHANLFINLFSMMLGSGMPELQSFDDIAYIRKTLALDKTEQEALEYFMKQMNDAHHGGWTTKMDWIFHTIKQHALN
PI3K p110α/p85α (human), sequence (P27986 whole entry partner): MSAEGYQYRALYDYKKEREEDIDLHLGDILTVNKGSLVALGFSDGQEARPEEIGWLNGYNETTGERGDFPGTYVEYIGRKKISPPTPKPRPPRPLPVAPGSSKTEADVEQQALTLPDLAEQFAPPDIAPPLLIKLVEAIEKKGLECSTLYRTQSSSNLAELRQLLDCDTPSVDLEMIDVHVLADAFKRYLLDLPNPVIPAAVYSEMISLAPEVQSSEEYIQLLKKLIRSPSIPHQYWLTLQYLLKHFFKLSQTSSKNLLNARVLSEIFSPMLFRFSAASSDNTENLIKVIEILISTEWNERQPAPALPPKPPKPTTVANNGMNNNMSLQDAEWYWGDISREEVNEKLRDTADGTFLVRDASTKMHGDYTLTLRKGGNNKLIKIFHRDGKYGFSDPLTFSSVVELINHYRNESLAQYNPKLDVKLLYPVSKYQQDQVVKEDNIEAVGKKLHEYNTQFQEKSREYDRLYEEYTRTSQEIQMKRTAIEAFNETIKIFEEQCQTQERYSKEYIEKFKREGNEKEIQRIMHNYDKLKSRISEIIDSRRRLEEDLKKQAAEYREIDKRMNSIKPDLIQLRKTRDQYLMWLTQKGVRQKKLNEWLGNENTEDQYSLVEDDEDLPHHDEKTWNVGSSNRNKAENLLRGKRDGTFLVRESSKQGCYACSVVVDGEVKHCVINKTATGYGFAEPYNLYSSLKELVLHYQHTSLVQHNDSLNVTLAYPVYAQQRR
PI3K p110δ/p85α (human), sequence (O00329 whole entry): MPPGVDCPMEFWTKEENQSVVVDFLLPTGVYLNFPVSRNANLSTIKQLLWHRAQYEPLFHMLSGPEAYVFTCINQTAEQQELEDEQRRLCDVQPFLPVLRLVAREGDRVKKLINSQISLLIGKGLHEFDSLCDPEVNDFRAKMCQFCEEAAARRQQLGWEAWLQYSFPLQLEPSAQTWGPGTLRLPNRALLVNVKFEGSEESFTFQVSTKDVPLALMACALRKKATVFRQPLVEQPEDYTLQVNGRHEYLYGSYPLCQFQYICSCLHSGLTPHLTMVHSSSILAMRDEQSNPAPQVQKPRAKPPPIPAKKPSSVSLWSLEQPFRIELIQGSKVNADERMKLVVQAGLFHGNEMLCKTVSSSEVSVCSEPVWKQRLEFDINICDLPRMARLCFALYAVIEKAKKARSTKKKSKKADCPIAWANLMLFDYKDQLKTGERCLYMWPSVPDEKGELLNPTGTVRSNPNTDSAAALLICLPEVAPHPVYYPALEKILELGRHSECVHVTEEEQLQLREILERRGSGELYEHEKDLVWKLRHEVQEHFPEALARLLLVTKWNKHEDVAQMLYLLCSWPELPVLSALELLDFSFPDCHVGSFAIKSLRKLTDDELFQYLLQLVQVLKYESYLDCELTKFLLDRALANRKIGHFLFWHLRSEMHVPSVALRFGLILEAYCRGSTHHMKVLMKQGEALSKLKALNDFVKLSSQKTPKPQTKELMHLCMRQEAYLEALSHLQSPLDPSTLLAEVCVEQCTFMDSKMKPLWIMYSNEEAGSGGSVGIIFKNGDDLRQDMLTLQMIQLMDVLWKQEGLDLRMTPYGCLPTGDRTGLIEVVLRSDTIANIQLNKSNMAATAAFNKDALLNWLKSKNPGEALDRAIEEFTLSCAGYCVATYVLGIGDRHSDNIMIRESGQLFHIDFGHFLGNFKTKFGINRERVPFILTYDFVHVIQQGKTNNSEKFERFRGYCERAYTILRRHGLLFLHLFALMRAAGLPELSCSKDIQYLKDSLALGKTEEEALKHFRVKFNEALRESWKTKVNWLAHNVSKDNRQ
PI3K p110δ/p85α (human), sequence (P27986 whole entry partner): as the sequence (P27986 whole entry partner) above
PI3K p110β/p85α (human), sequence (P42338 whole entry, the tested form may be a part): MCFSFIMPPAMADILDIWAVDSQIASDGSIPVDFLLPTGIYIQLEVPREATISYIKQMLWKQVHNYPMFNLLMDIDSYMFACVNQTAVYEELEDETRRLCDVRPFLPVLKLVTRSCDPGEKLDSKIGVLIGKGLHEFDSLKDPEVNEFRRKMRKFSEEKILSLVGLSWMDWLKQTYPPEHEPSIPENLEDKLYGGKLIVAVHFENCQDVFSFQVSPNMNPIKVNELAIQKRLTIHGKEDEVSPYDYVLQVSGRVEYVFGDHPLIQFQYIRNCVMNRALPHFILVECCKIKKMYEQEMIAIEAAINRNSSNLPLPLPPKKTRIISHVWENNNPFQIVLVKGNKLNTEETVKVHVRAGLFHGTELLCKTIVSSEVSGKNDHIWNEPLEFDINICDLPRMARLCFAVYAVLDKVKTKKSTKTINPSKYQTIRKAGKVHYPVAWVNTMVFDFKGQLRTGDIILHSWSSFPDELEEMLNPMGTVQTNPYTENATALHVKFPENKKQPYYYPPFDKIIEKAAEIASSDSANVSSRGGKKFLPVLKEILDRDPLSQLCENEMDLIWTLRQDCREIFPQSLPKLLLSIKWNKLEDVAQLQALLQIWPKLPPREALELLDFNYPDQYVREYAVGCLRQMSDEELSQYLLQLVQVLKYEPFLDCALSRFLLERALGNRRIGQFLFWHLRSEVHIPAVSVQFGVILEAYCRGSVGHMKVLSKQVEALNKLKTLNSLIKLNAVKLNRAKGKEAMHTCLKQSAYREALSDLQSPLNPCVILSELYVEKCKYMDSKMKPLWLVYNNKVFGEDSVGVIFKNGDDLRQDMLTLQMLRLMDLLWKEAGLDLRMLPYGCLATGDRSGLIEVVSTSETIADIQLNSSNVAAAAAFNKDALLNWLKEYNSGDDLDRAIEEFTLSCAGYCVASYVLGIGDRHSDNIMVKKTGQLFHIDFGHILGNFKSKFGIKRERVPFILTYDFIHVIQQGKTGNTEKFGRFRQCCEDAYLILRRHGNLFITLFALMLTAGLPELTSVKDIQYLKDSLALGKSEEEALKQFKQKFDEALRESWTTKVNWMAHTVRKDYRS
PI3K p110β/p85α (human), sequence (P27986 whole entry partner, the tested form may be a part): as the sequence (P27986 whole entry partner) above
PI3K (p120γ) (human), sequence (P48736 whole entry, the tested form may be a part): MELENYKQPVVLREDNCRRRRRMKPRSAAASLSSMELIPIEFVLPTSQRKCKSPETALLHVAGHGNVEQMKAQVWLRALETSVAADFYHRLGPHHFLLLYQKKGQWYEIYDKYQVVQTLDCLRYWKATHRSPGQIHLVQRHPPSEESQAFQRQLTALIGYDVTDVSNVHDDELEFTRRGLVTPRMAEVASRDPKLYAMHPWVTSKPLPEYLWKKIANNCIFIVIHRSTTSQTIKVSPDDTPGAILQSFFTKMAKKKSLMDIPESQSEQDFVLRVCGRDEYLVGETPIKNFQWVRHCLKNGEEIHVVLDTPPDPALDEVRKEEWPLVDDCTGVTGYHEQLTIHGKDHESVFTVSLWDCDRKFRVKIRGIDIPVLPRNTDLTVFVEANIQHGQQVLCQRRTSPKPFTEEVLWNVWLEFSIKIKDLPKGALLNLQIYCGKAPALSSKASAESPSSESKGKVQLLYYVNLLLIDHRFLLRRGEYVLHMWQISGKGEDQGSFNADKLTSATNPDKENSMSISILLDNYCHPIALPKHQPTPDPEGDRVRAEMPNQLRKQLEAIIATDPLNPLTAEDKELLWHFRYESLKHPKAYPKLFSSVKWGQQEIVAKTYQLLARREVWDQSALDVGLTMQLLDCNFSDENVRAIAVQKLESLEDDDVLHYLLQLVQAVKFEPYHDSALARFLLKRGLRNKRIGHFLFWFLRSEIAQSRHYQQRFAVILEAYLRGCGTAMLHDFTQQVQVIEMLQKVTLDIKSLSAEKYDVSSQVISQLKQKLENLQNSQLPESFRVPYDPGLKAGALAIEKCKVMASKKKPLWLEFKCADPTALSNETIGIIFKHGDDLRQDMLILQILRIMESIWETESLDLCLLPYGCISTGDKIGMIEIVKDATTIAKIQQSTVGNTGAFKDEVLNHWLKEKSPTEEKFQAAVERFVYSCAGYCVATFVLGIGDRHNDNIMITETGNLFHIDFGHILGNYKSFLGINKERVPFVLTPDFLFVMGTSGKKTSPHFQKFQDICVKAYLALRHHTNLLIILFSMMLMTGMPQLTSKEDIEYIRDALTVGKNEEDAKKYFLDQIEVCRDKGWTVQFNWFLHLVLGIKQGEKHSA

Row | SMILES | IC50 (PI3K (p120γ) (human)) | IC50 (PI3K p110δ/p85α (human)) | IC50 (mTOR (human)) | IC50 (PI3K p110α/p85α (human)) | IC50 (PI3K p110β/p85α (human)) | IC50 [1] | IC50 ([1]; 10 μM ATP, substrate p53) | IC50 [2]
1 | COc1cc2ncc3c(c2cc1-c1cnn(C)c1)n(-c1ncc(C)cc1F)c(=O)n3C [Compound Example 27, 1-(3-Fluoro-5-methylpyridin-2-yl)-7-methoxy-3-methyl-8-(1-methyl-1H-pyrazol-4-yl)-1,3-dihydroimidazo[4,5-c] quinolin-2-one] | > 30 µM | > 30 µM | > 30 µM | > 30 µM | > 30 µM | < 0.001 µM | < 0.001 µM | < 0.2 µM
2 | COc1cc2ncc3c(c2cc1-c1cnn(C)c1)n(-c1ccncc1OC)c(=O)n3C [Compound Example 28, 7-Methoxy-1-(3-methoxy-pyridin-4-yl)-3-methyl-8-(1-methyl-1H-pyrazol-4-yl)-1,3-dihydroimidazo[4,5-c] quinolin-2-one] | > 30 µM | > 30 µM | > 30 µM | > 30 µM | > 30 µM | < 0.01 µM | < 0.01 µM | < 0.2 µM
3 | COc1cc2ncc3c(c2cc1-c1cc(C)[nH]n1)n(-c1ncccc1F)c(=O)n3C [Compound Example 29, 1-(3-Fluoropyridin-2-yl)-7-methoxy-3-methyl-8-(5-methyl-1H-pyrazol-3-yl)-1,3-dihydroimidazo[4,5-c] quinolin-2-one] | > 30 µM | > 30 µM | > 30 µM | > 30 µM | > 30 µM | < 0.01 µM | < 0.01 µM | < 0.2 µM
4 | COc1cc2ncc3c(c2cc1-c1cn[nH]c1)n(-c1csc(C)n1)c(=O)n3C [Compound Example 30, 7-Methoxy-3-methyl-1-(2-methylthiazol-4-yl)-8-(1H-pyrazol-4-yl)-1,3-dihydro-imidazo[4,5-c]quinolin-2-one] | > 30 µM | > 30 µM | > 30 µM | > 30 µM | > 30 µM | < 0.01 µM | < 0.01 µM | < 0.2 µM
5 | COc1cc2ncc3c(c2cc1-c1cnn(C)c1)n(-c1ncncc1F)c(=O)n3C [Compound Example 31, 1-(5-Fluoropyrimidin-4-yl)-7-methoxy-3-methyl-8-(1-methyl-1H-pyrazol-4-yl)-1H,2H,3H-imidazo[4,5-c] quinolin-2-one hydrochloride] | > 30 µM | > 30 µM | > 30 µM | > 30 µM | > 30 µM | < 0.01 µM | < 0.01 µM | < 0.2 µM
6 | CCn1cc(-c2cc3c(cc2OC)ncc2c3n(-c3ccncc3F)c(=O)n2C)cn1 [Compound Example 33, 8-(1-Ethyl-1H-pyrazol-4-yl)-1-(3-fluoropyridin-4-yl)-7-methoxy-3-methyl-1,3-dihydroimidazo[4,5-c] quinolin-2-one] | > 30 µM | > 30 µM | > 30 µM | > 30 µM | > 30 µM | < 0.001 µM | < 0.001 µM | < 0.2 µM
7 | CCn1cc(-c2cc3c(cc2OC)ncc2c3n(-c3ccncc3C)c(=O)n2C)cn1 [Compound Example 34, 8-(1-Ethyl-1H-pyrazol-4-yl)-7-methoxy-3-methyl-1-(3-methylpyridin-4-yl)-1,3-dihydroimidazo[4,5-c] quinolin-2-one] | > 30 µM | > 30 µM | > 30 µM | > 30 µM | > 30 µM | < 0.01 µM | < 0.01 µM | < 0.2 µM
8 | COc1cc2ncc3c(c2cc1-c1cnn(C)c1)n(-c1ccncc1F)c(=O)n3C [Compound Example 35, 1-(3-Fluoropyridin-4-yl)-7-methoxy-3-methyl-8-(1-methyl-1H-pyrazol-4-yl)-1,3-dihydroimidazo[4,5-c] quinolin-2-one] | > 30 µM | > 30 µM | > 30 µM | > 30 µM | > 30 µM | < 0.01 µM | < 0.01 µM | < 0.2 µM
9 | COc1cc2ncc3c(c2cc1-c1cnn(C)c1)n(-c1ncc(F)cn1)c(=O)n3C [Compound Example 36, 1-(5-Fluoropyrimidin-2-yl)-7-methoxy-3-methyl-8-(1-methyl-1H-pyrazol-4-yl)-1,3-dihydroimidazo[4,5-c] quinolin-2-one] | > 30 µM | > 30 µM | > 30 µM | > 30 µM | > 30 µM | < 0.001 µM | < 0.01 µM | < 0.2 µM
10 | COc1cc2ncc3c(c2cc1-c1cn[nH]c1)n(-c1cnn(C2CCOCC2)c1)c(=O)n3C [Compound Example 37, 7-Methoxy-3-methyl-8-(1H-pyrazol-4-yl)-1-[1-(tetrahydropyran-4-yl)-1H-pyrazol-4-yl]-1,3-dihydro-imidazo[4,5-c] quinolin-2-one] | > 30 µM | > 30 µM | > 10 µM | > 30 µM | > 30 µM | < 0.01 µM | < 0.01 µM | < 0.2 µM
11 | CCn1cc(-c2cc3c(cc2OC)ncc2c3n(-c3c(C)cncc3F)c(=O)n2C)cn1 [Compound Example 38, 8-(1-Ethyl-1H-pyrazol-4-yl)-1-(3-fluoro-5-methylpyridin-4-yl)-7-methoxy-3-methyl-1,3-dihydroimidazo[4,5-c] quinolin-2-one] | > 30 µM | > 30 µM | > 30 µM | > 30 µM | > 30 µM | < 0.001 µM | < 0.001 µM | 0.2 to 1 µM
12 | COc1cc2ncc3c(c2cc1-c1cnn(C)c1)n(-c1ccncc1C)c(=O)n3C [Compound Example 40, 7-Methoxy-3-methyl-8-(1-methyl-1H-pyrazol-4-yl)-1-(3-methylpyridin-4-yl)-1,3-dihydroimidazo[4,5-c] quinolin-2-one] | > 30 µM | > 30 µM | > 30 µM | > 30 µM | > 30 µM | < 0.01 µM | < 0.01 µM | 0.2 to 1 µM
13 | COc1cc2ncc3c(c2cc1-c1cn[nH]c1)n(-c1ccnn1C)c(=O)n3C [Compound Example 41, 7-Methoxy-3-methyl-1-(2-methyl-2H-pyrazol-3-yl)-8-(1H-pyrazol-4-yl)-1,3-dihydroimidazo[4,5-c] quinolin-2-one] | > 30 µM | > 30 µM | > 10 µM | > 30 µM | > 30 µM | < 0.01 µM | < 0.01 µM | 0.2 to 1 µM
14 | COc1cc2ncc3c(c2cc1-c1cnn(C)c1)n(-c1c[nH]nc1C)c(=O)n3C [Compound Example 43, 7-Methoxy-3-methyl-1-(3-methyl-1H-pyrazol-4-yl)-8-(1-methyl-1H-pyrazol-4-yl)-1,3-dihydroimidazo[4,5-c]-quinolin-2-one] | > 30 µM | > 30 µM | > 30 µM | > 30 µM | > 30 µM | < 0.001 µM | < 0.001 µM | 0.2 to 1 µM
15 | COc1cc2ncc3c(c2cc1-c1cnn(C)c1)n(-c1c(F)cncc1C#N)c(=O)n3C [Compound Example 44, 5-Fluoro-4-[7-methoxy-3-methyl-8-(1-methyl-1H-pyrazol-4-yl)-2-oxo-2,3-dihydroimidazo[4,5-c]-quinolin-1-yl]nicotinonitrile] | > 30 µM | > 30 µM | > 30 µM | > 30 µM | > 30 µM | < 0.01 µM | < 0.01 µM | 0.2 to 1 µM
16 | COc1cc2ncc3c(c2cc1-c1cnn(C)c1)n(-c1ccnc(C#N)c1)c(=O)n3C [Compound Example 45, 4-[7-Methoxy-3-methyl-8-(1-methyl-1H-pyrazol-4-yl)-2-oxo-2,3-dihydroimidazo-[4,5-c]quinolin-1-yl]pyridine-2-carbonitrile] | > 30 µM | > 30 µM | > 30 µM | > 30 µM | > 30 µM | < 0.05 µM | < 0.05 µM | 0.2 to 1 µM
